Measurements published in BindingDB's records for aid1799744 (Csar, 2012).
pKi: −log10 of the molar value.

Target: Mitogen-activated protein kinase 1 (Homo sapiens, UniProt P28482)
Assay: Assay 1

Chain of Mitogen-activated protein kinase 1 (P28482 whole entry): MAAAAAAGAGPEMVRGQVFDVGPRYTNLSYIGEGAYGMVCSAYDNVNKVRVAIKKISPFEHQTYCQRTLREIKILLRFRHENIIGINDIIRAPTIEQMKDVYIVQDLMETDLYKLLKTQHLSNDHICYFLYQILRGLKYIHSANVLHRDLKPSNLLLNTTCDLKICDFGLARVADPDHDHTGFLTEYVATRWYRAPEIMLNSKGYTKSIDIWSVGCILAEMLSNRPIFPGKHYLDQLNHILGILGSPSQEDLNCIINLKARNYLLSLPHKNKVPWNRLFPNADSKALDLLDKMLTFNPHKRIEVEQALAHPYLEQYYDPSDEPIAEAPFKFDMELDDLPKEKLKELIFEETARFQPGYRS

Going from `Cc1ncc(C)c(-c2c[nH]c(C(=O)N[C@H](CO)c3ccccc3)c2)n1` [erk000502] to `Cc1cnc(N)nc1-c1c[nH]c(C(=O)N[C@H](CO)c2ccccc2)c1` [erk000287], the pKi falls from 6.59 to 5.72 (0.87 log units). The first binds more tightly here.

Compared with `Cc1cnc(NC2CC2)nc1-c1c[nH]c(C(=O)N[C@H](CO)c2cccc(F)c2)c1` [erk000542], `Cc1cnc(NC2CC2)nc1-c1c[nH]c(C(=O)N[C@H](CO)c2cccc(C(F)(F)F)c2)c1` [erk000492] is 0.74 log units higher in pKi: 7.96 for the first, 8.70 for the second. The second binds more tightly here.

First: COc1cccc(Nc2ncc(C)c(-c3c[nH]c(C(=O)N[C@H](CO)c4cccc(C)c4)c3)n2)c1C [erk000535]
Second: Cc1cnc(Nc2cccc(C)c2C)nc1-c1c[nH]c(C(=O)N[C@H](CO)c2cccc(F)c2)c1 [erk000539]
The pKi of the first is 1.70 log units lower: 6.70 for the first, 8.40 for the second. The second binds more tightly here.

First: Cc1cnc(NC2CCC2)nc1-c1c[nH]c(C(=O)N[C@H](CO)c2ccccc2)c1 [erk000540]
Second: Cc1cnc(NC2CCCC2)nc1-c1c[nH]c(C(=O)N[C@H](CO)c2ccccc2)c1 [erk000516]
The pKi of the first is 0.48 log units lower: 8.22 for the first, 8.70 for the second. The second binds more tightly here.

Going from `CCNc1ncc(C)c(-c2c[nH]c(C(=O)N[C@@H](CO)c3ccccc3F)c2)n1` [erk000486] to `CCNc1ncc(C)c(-c2c[nH]c(C(=O)NCc3ccccc3F)c2)n1` [erk000473], the pKi falls from 6.64 to 6.10 (0.54 log units).

Going from `Cc1cnc(NOCCO)nc1-c1c[nH]c(C(=O)N[C@H](CO)c2ccccc2)c1` [erk000504] to `Cc1cnc(NC(CO)CO)nc1-c1c[nH]c(C(=O)N[C@H](CO)c2ccccc2)c1` [erk000509], the pKi rises from 7.74 to 8.30 (0.56 log units). The second binds more tightly here.

First: CCONc1ncc(C)c(-c2c[nH]c(C(=O)N[C@H](CO)c3cccc(Cl)c3)c2)n1 [erk000582]
Second: CC[C@@H](CO)Nc1ncc(C)c(-c2c[nH]c(C(=O)N[C@H](CO)c3cccc(Cl)c3)c2)n1 [erk000507]
The pKi of the first is 0.48 log units lower: 8.22 for the first, 8.70 for the second. The second binds more tightly here.

Compared with `CC[C@@H](COC(=O)C(C)(C)C)Nc1ncc(C)c(-c2c[nH]c(C(=O)N[C@H](CO)c3cccc(Cl)c3)c2)n1` [erk000702], `Cc1cnc(N[C@@H](C)C(C)C)nc1-c1c[nH]c(C(=O)N[C@H](CO)c2cccc(Cl)c2)c1` [erk000605] is 0.96 log units higher in pKi: 7.26 for the first, 8.22 for the second.

First: c1ccc2c(Nc3cc(C4CC4)n[nH]3)nc(Nc3ccc4nc[nH]c4c3)nc2c1 [erk000508]
Second: Cc1ccc(Nc2ncc(C)c(-c3c[nH]c(C(=O)N[C@H](CO)c4ccccc4)c3)n2)cc1C [erk000441]
The pKi of the first is 1.59 log units lower: 7.11 for the first, 8.70 for the second. The second binds more tightly here.

Going from `Cc1cccc([C@@H](CO)NC(=O)c2cc(-c3nc(N[C@@H]4CCOC4)ncc3C)c[nH]2)c1` [erk000610] to `Cc1cccc([C@@H](CO)NC(=O)c2cc(-c3nc(NC4CCOCC4)ncc3C)c[nH]2)c1` [erk000602], the pKi rises from 8.00 to 8.52 (0.52 log units). The second binds more tightly here.

First: CCNc1ncc(C)c(-c2c[nH]c(C(=O)N[C@@H](CO)c3cc(F)cc(C(F)(F)F)c3)c2)n1 [erk000478]
Second: Cc1cccc([C@@H](CO)NC(=O)c2cc(-c3nc(NCC(F)(F)F)ncc3C)c[nH]2)c1 [erk000647]
The pKi of the first is 1.48 log units lower: 6.92 for the first, 8.40 for the second.

First: CN(Cc1ccccc1)C(=O)c1cc(-c2ccnc(Nc3ccccc3)n2)c[nH]1 [erk000059]
Second: Nc1nccc(-c2c[nH]c(C(=O)N(CCO)Cc3ccccc3)c2)n1 [erk000543]
The pKi of the first is 0.82 log units higher: 6.52 for the first, 5.70 for the second. The first binds more tightly here.

Going from `O=C(NCc1ccncc1)c1cc(-c2n[nH]cc2-c2cc(Cl)cc(Cl)c2)c[nH]1` [erk000114] to `Nc1ncc(-c2cc(Cl)cc(Cl)c2)c(-c2c[nH]c(C(=O)N[C@H](CO)c3ccccc3)c2)n1` [erk000031], the pKi falls from 7.10 to 6.64 (0.46 log units). The first binds more tightly here.

Going from `Cc1cnc(NC2CCCCC2)nc1-c1c[nH]c(C(=O)N[C@H](CO)c2ccccc2)c1` [erk000534] to `Cc1cnc(NC#N)nc1-c1c[nH]c(C(=O)N[C@H](CO)c2ccccc2)c1` [erk000503], the pKi falls from 8.70 to 7.60 (1.10 log units).

Compared with `Cc1cnc(N)nc1-c1c[nH]c(C(=O)NCc2ccc3c(c2)OCO3)c1` [erk000066], `Cc1cnc(N)nc1-c1c[nH]c(C(=O)NCc2ccc(F)c(Cl)c2)c1` [erk000304] is 0.42 log units lower in pKi: 6.85 for the first, 6.43 for the second. The first binds more tightly here.

Compared with `CCNc1ncc(C)c(-c2c[nH]c(C(=O)NCc3cccc(OC)c3)c2)n1` [erk000476], `COc1cccc(CNC(=O)c2cc(-c3nc(N)ncc3C)c[nH]2)c1` [erk000630] is 1.19 log units lower in pKi: 7.28 for the first, 6.09 for the second.

Compared with `Cc1cccc([C@@H](CO)NC(=O)c2cc(-c3nc(NOCC(C)C)ncc3C)c[nH]2)c1` [erk000600], `Cc1cccc([C@@H](CO)NC(=O)c2cc(-c3nc(NCC(C)C)ncc3C)c[nH]2)c1` [erk000523] is 0.70 log units higher in pKi: 8.00 for the first, 8.70 for the second. The second binds more tightly here.

Going from `Cc1cnc(Nc2cccc([N+](=O)[O-])c2)nc1-c1c[nH]c(C(=O)N[C@H](CO)c2ccccc2)c1` [erk000565] to `Cc1cnc(Nc2cccc(Br)c2C)nc1-c1c[nH]c(C(=O)N[C@H](CO)c2ccccc2)c1` [erk000562], the pKi falls from 8.52 to 7.57 (0.95 log units). The first binds more tightly here.

Compared with `Cc1cnc(N[C@@H](C)COC(=O)C(C)C)nc1-c1c[nH]c(C(=O)N[C@H](COC(=O)C(C)C)c2cccc(Cl)c2)c1` [erk000677], `CC[C@@H](COC(=O)C(C)C)Nc1ncc(Cl)c(-c2c[nH]c(C(=O)N[C@H](COC(=O)C(C)C)c3ccccc3)c2)n1` [erk000696] is 0.94 log units higher in pKi: 5.88 for the first, 6.82 for the second. The second binds more tightly here.

Compared with `Cc1onc(-c2ccccc2)c1-c1ccn(C(=O)NC(C)C)n1` [erk000088], `Cc1cnc(NOC(C)C)nc1-c1c[nH]c(C(=O)N[C@H](CO)c2ccccc2)c1` [erk000494] is 3.18 log units higher in pKi: 4.82 for the first, 8.00 for the second.

First: C[C@@H]1CCN(C(=O)CC#N)C[C@@H]1N(C)c1nc(Nc2ccc(N3CCOCC3)cc2)nc2[nH]cnc12 [erk000723]
Second: Cc1cnc(NN2CCOCC2)nc1-c1c[nH]c(C(=O)N[C@H](CO)c2cccc(Cl)c2)c1 [erk000558]
The pKi of the first is 2.31 log units lower: 6.39 for the first, 8.70 for the second. The second binds more tightly here.

First: Cc1cnc(N[C@@H](CO)CC2CC2)nc1-c1c[nH]c(C(=O)N[C@H](CO)c2ccccc2)c1 [erk000487]
Second: Cc1cnc(N[C@H](CO)CC(C)C)nc1-c1c[nH]c(C(=O)N[C@H](CO)c2ccccc2)c1 [erk000514]
The pKi of the first is 0.35 log units higher: 8.40 for the first, 8.05 for the second. The first binds more tightly here.

First: CNc1ncc(C)c(-c2c[nH]c(C(=O)NCc3cccc(C(F)(F)F)c3)c2)n1 [erk000042]
Second: CNc1ncc(C)c(-c2c[nH]c(C(=O)NCc3ccc(Cl)cc3Cl)c2)n1 [erk000054]
The pKi of the first is 0.63 log units higher: 6.33 for the first, 5.70 for the second.

Compared with `CCn1cc(-c2nc(NCC(F)(F)F)ncc2C)cc1C(=O)N[C@H](CO)c1cccc(Cl)c1` [erk000680], `CC[C@@H](CO)Nc1ncc(C)c(-c2cc(C(=O)N[C@H](CO)c3cccc(Cl)c3)n(CC)c2)n1` [erk000678] is 0.93 log units higher in pKi: 7.47 for the first, 8.40 for the second. The second binds more tightly here.

Going from `CC[C@@H](COC(=O)[C@H](CC(C)C)NC)Nc1ncc(C)c(-c2c[nH]c(C(=O)N[C@H](COC(=O)[C@H](CC(C)C)NC)c3cccc(Cl)c3)c2)n1` [erk000719] to `CC[C@@H](COC(=O)[C@@H](N)C(C)(C)C)Nc1ncc(C)c(-c2c[nH]c(C(=O)N[C@H](COC(=O)[C@@H](N)C(C)(C)C)c3cccc(Cl)c3)c2)n1` [erk000714], the pKi rises from 6.28 to 7.52 (1.24 log units). The second binds more tightly here.

Going from `Cc1cnc(NCC(F)(F)F)nc1-c1c[nH]c(C(=O)N[C@H](CO)c2ccccc2)c1` [erk000444] to `Cc1cnc(NCc2ccncc2)nc1-c1c[nH]c(C(=O)N[C@H](CO)c2ccccc2)c1` [erk000579], the pKi falls from 8.30 to 6.11 (2.19 log units). The first binds more tightly here.

Going from `Cc1cnc(N[C@H]2CCC[C@@H]2O)nc1-c1c[nH]c(C(=O)N[C@H](CO)c2cccc(Cl)c2)c1` [erk000613] to `Cc1cnc(NCC(C)C)nc1-c1c[nH]c(C(=O)N[C@H](CO)c2cccc(Cl)c2)c1` [erk000525], the pKi rises from 7.46 to 8.52 (1.06 log units).

Compared with `CC[C@@H](CO)Nc1ncc(C)c(-c2c[nH]c(C(=O)N(C)[C@H](CO)c3cccc(Cl)c3)c2)n1` [erk000709], `Cc1cccc([C@@H](CO)NC(=O)c2cc(-c3nc(NC(C)C)ncc3C)c[nH]2)c1` [erk000522] is 0.30 log units higher in pKi: 8.70 for the first, 9.00 for the second. The second binds more tightly here.

Compared with `Cc1cccc([C@@H](CO)NC(=O)c2cc(-c3nc(Nc4ccccn4)ncc3C)c[nH]2)c1` [erk000603], `Cc1ccnc(Nc2ncc(C)c(-c3c[nH]c(C(=O)N[C@H](CO)c4ccccc4)c3)n2)c1` [erk000518] is 0.35 log units higher in pKi: 8.05 for the first, 8.40 for the second.

First: Cc1ccc(Nc2ncc(C)c(-c3c[nH]c(C(=O)N[C@H](CO)c4cccc(Cl)c4)c3)n2)cc1 [erk000585]
Second: Cc1cccc(Nc2ncc(C)c(-c3c[nH]c(C(=O)N[C@H](CO)c4cccc(Cl)c4)c3)n2)n1 [erk000619]
The pKi of the first is 0.55 log units lower: 8.15 for the first, 8.70 for the second.

`O=C(N[C@H](CO)c1cccc(Cl)c1)c1cc(-c2ncnc(Nc3ccccc3)n2)c[nH]1` [erk000671] and `Cc1ccc([C@@H](CO)NC(=O)c2cc(-c3nc(Nc4ccccc4)ncc3C)c[nH]2)cc1F` [erk000435] are the same in pKi: 8.70 for the first, 8.70 for the second.

Compared with `CCN(CC)c1ccc(Nc2ncc(C)c(-c3c[nH]c(C(=O)N[C@H](CO)c4ccccc4)c3)n2)c(C)c1` [erk000654], `Cc1cnc(Nc2ccc(Cl)cc2Cl)nc1-c1c[nH]c(C(=O)N[C@H](CO)c2ccccc2)c1` [erk000657] is 0.82 log units higher in pKi: 7.28 for the first, 8.10 for the second. The second binds more tightly here.

First: CCc1cnc(N)nc1-c1c[nH]c(C(=O)N[C@H](CO)c2ccccc2)c1 [erk000065]
Second: CCNc1ncc(C)c(-c2c[nH]c(C(=O)N[C@H](C(=O)OC)c3ccccc3)c2)n1 [erk000470]
The pKi of the first is 0.54 log units higher: 6.54 for the first, 6.00 for the second. The first binds more tightly here.

First: Cc1cnc(N)nc1-c1c[nH]c(C(=O)NCc2cc(F)cc(F)c2)c1 [erk000629]
Second: Cc1cnc(N)nc1-c1c[nH]c(C(=O)NCc2ccc(F)c(F)c2)c1 [erk000286]
The pKi of the first is 1.31 log units lower: 6.01 for the first, 7.32 for the second. The second binds more tightly here.

Going from `Cc1cnc(Nc2ccc3ncsc3c2)nc1-c1c[nH]c(C(=O)N[C@H](CO)c2cccc(Cl)c2)c1` [erk000665] to `Cc1ccc([C@@H](CO)NC(=O)c2cc(-c3nc(Nc4cccc(F)c4)ncc3C)c[nH]2)cc1F` [erk000436], the pKi rises from 7.15 to 8.22 (1.07 log units). The second binds more tightly here.

Going from `Cc1cccc([C@@H](CO)NC(=O)c2cc(-c3nc(Nc4ccccc4N(C)C)ncc3C)c[nH]2)c1` [erk000532] to `Cc1ccc(-c2csc(Nc3ncc(C)c(-c4c[nH]c(C(=O)N[C@H](CO)c5ccccc5)c4)n3)n2)cc1` [erk000588], the pKi rises from 7.30 to 8.00 (0.70 log units).

Going from `CC[C@@H](COC(=O)COCCOC)Nc1ncc(C)c(-c2c[nH]c(C(=O)N[C@H](COC(=O)COCCOC)c3cccc(Cl)c3)c2)n1` [erk000716] to `Cc1cnc(NC2Cc3ccccc3C2)nc1-c1c[nH]c(C(=O)N[C@H](CO)c2cccc(Cl)c2)c1` [erk000592], the pKi rises from 6.37 to 7.80 (1.43 log units). The second binds more tightly here.

Going from `CCNc1ncc(C)c(-c2c[nH]c(C(=O)N3CCc4ccccc4C3)c2)n1` [erk000058] to `CCNc1ncc(C)c(-c2c[nH]c(C(=O)NCc3ccccc3OC)c2)n1` [erk000475], the pKi rises from 5.80 to 6.33 (0.53 log units).

Going from `C[S+]([O-])c1ccc(-c2nc(-c3cccc(I)c3)c(-c3ccncc3)[nH]2)cc1` (stereo not drawn) [erk000253] to `COc1ccccc1CNC(=O)c1cc(-c2nc(N)ncc2C)c[nH]1` [erk000312], the pKi rises from 4.89 to 5.60 (0.71 log units).
